Laboratory results from paper PMC12203697, “Bioactive constituents from the edible seaweed Halymenia hawaiiana (Rhodophyta)” (Pharmaceutical Biology, 2025).
In brackets after ≈: the same amount, converted by molar mass. Like-named read-outs stand apart in the source and are kept apart here.

Tests used:
S. marcescent = assay: Antibacterial MIC, broth microdilution with resazurin; format: cell-based, Serratia marcescens; settings: Serratia marcescens, Gram-negative, read-out: MIC
Source text: (§1) Methicillin-resistant Staphylococcus aureus (MRSA), methicillin-susceptible S. aureus (MSSA), and Gram-negative clinical isolates of bacteria [Escherichia coli (9637) and Serratia marcescens ATCC 13880] were used for this study. […] MSSA HBP10, MSSA LUU7, MSSA R113, S. aureus ONE9, and MSSA POB2 were isolated in Hawaiʻi (Gerken et al. [2021]). Mueller Hinton Broth (MHB, GTIN:00382902979630, Becton, Dickinson and Company, Franklin Lakes, NJ, USA) and Mueller Hinton Agar (MHA, GTIN:00382902252504, Becton, Dickinson and Company, Franklin Lakes, NJ, USA,) were used for bacterial inoculation. MRSA was a pathogen strain causing hospital-acquired infections in 1982. This strain easily acquires resistance to antibiotics, such as vancomycin. MSSA strains isolated from the Island of Hawaiʻi included: Honolʻii Beach Park (HBP10) carry the genes erm(C), aph(3′)-III, and mecA, which provide resistance to macrolide, aminoglycoside, and beta-lactam antibiotics, respectively; Wailuku River (LUU7) which contains the blaZ gene (beta-lactam resistance) (Gerken et al. [2021]). Richardson’s Beach Park (R113) and Onekahakaha (ONE9) which is known for its virulence factors (hlgA, hlgB, hlgC, lukD, and lukE).
(§2) The minimum inhibitory concentrations (MICs) were determined using a two-fold serial dilution method with MHB following the recommendations of the Clinical and Laboratory Standards Institute (CLSI [2012]; Elshikh et al. [2016]). In brief, serial two-fold dilutions of the samples in DMSO were mixed with MHB in a 96-well microplate. Then, 50 µL of bacteria suspension was added to each well, resulting in a final concentration of 1 × 10^4 colony-forming units/well. The plates were incubated at 35–37 °C for 18–24 hr. After incubation, 10 µL of 0.18% resazurin (Cat. No. R7017, Sigma-Aldrich, USA) was added to each well (Elshikh et al. [2016]). The MIC was assessed within 2–3 hr after the addition of resazurin. All antimicrobial assays were performed in triplicate, using vancomycin (Cat. No. SBR00001, Sigma-Aldrich, USA) and gentamicin (Cat. No. G1397, Sigma-Aldrich, USA) as standard controls.

MSSA R113 = assay: as above; format: cell-based; settings: Staphylococcus aureus; MSSA R113, Gram-positive; read-out: MIC
Source text: as §1, §2

S. aureus ONE9 = assay: as above; format: cell-based; settings: Staphylococcus aureus; S. aureus ONE9, Gram-positive; read-out: MIC
Source text: as §1, §2

RAW 264.7 cells = assay: SRB cellular viability in RAW 264.7 cells; format: cell-based, mouse; settings: under the NO and ROS/RNS assay conditions
Procedure: The nitrite concentration in the culture medium was measured to indicate nitric oxide (NO) production as previously described (Min et al. [2009]). The murine macrophage RAW 264.7 cell line was obtained from ATCC, Manassas, VA, USA, and maintained in Dulbecco’s modified Eagle’s medium supplemented with 10% heat-inactivated FBS (Cat. No. A5670801, Gibco BRL Co, Grand Island, NY, USA), penicillin G (100 units/mL) (Cat. No. P7794, Sigma-Aldrich, USA), streptomycin (100 µg/mL) (Cat. No. S9137, Sigma-Aldrich, USA), and L-glutamine (2 mM) (Cat. No. 25030081, Gibco BRL Co, Grand Island, NY, USA). In brief, RAW 264.7 cells were seeded at a density of 4 × 10^4 cells/well in phenol red-free media (Cat. No. 11835030, Gibco, USA) in a 96-well plate, and incubated in a humidified incubator with 5% CO2 at 37 °C for 24 hr. Following this, the cells were treated with increasing concentrations of samples ranging from 10–50 μg/mL for 4 hr, after which the cells were treated with 1 μg/mL LPS for 20 h. L-N-Monomethyl Arginine citrate (L-NMMA) (Cat. No. NC0190932, Cayman Chemical, Michigan, USA), a non-selective inhibitor of NOS, was used as positive control. The concentration of nitric oxide production was assessed using the Griess reagent, which consists of a 1:1 (v/v) mixture of 1% sulfanilamide (Cat No. A13001, Alfa Aesar, Massachusetts, USA) in H3PO4 and N-(1-naphthyl)ethylenediamine dihydrochloride (Cat. No. 102397, MP Biomedicals, USA). Absorbance was recorded with a microplate reader (SynergyMx, BioTeK, Winooski, VT, USA) at 540 nm. A standard curve was created using sodium nitrite (1–100 μM) (Cat. No. 44227, Alfa Aesar, Massachusetts, USA). […]
To measure the formation of intracellular ROS and RNS, we utilized the fluorogenic dye 2′,7′-dichlorodihydrofluorescein diacetate (Cat. No. 4091-99-0, H2DCF-DA, Abcam, Boston, MA, USA). […] The relative fluorescent intensity of the cells was measured using a fluorescence plate reader (Synergy H1, BioTeK, Winooski, VT, USA) with excitation/emission at 485 nm/535 nm. […]

[1] = tested on: ROS/RNS generation in RAW 264.7 cells; assay: Intracellular ROS/RNS levels in LPS-induced RAW 264.7 cells (H2DCF-DA); format: cell-based; settings: Mus musculus
Procedure: To measure the formation of intracellular ROS and RNS, we utilized the fluorogenic dye 2′,7′-dichlorodihydrofluorescein diacetate (Cat. No. 4091-99-0, H2DCF-DA, Abcam, Boston, MA, USA). This dye detects hydrogen peroxide, peroxyl radicals, and peroxynitrite anions (Kwon et al. [2019]). In brief, RAW 264.7 cells were seeded into a black 96-well plate (Cat. No. 165305, Thermo Fisher, USA) at 4 × 10^4 cells per well and incubated for 24 hr at 37 °C in 5% CO2. Afterward, the cells were treated with or without a sample for 4 hr before adding 1 μg/mL LPS (Cat. No. 00-4976-93, Thermo Fisher, USA) for 20 hr. Once this incubation was complete, the cells were washed twice with fetal bovine serum (FBS)-free media (Cat. No. A5256701, Thermo Fisher, USA) and stained with 10 μM H2DCF-DA (Cat. No. D399, Thermo Fisher, USA) in FBS-free media for 30 min at 37 °C, protected from light. Next, the dye-containing media was discarded, and the cells were washed twice with fresh serum-free media. The relative fluorescent intensity of the cells was measured using a fluorescence plate reader (Synergy H1, BioTeK, Winooski, VT, USA) with excitation/emission at 485 nm/535 nm. Curcumin (Cat. No. C1386-5G, Millipore Sigma, Burlington, MA, USA), a natural phenolic compound with antioxidant activity, was used as positive control. All samples were tested in triplicates. A sulforhodamine B (SRB) assay was conducted to assess cellular viability under a similar experimental setup. The final percentage of inhibition of ROS/RNS generation was calibrated using the % of cell viability.

[2] = RAW264.7, read-out: IC50, inhibition of LPS-induced ROS/RNS generation

Compound | MIC (S. marcescent) | MIC (MSSA R113) | MIC (S. aureus ONE9) | cytotoxicity in RAW 264.7 cells (in words) (RAW 264.7 cells) | IC50 ([1]; RAW264.7, RAW 264.7 cells, H2DCF-DA dye, LPS 1 μg/mL, read-out: IC50, inhibition of LPS-induced ROS/RNS generation) | IC50 [1, 2]
Nc1ccn([C@H]2C[C@H](O)[C@@H](CO)O2)c(=O)n1 [Compound 1, deoxycytidine] | 128 µg/mL (≈ 563 µM) | 128 µg/mL (≈ 563 µM) | 128 µg/mL (≈ 563 µM) |  |  | 
CC(C)CCC[C@@H](C)[C@H]1CC[C@H]2[C@@H]3CC=C4C[C@@H](O)CC[C@]4(C)[C@H]3CC[C@]12C [Compound 9, cholesterol] | 128 µg/mL (≈ 331 µM) | 128 µg/mL (≈ 331 µM) | 128 µg/mL (≈ 331 µM) | without inducing cytotoxicity | 55 ± 4.1 µM | 
CC(C)CCC[C@@H](C)[C@H]1CCC2[C@@]34C=C[C@]5(C[C@@H](O)CC[C@]5(C)C3CC[C@@]21C)OO4 (stereo partly drawn) [Compound 10, 7-dehydrochoresterol peroxide] | 64 µg/mL (≈ 154 µM) | 128 µg/mL (≈ 307 µM) | 128 µg/mL (≈ 307 µM) | without inducing cytotoxicity |  | 65 ± 4.8 µM
CC(C)CCC[C@@H](C)[C@H]1CCC2[C@]1(C)CC=C1[C@]23C=C[C@]2(C[C@@H](O)CC[C@]12C)OO3 (stereo partly drawn) [Compound 11, (3β-5α-8α)5,8-epidioxycholesta-6,9(1)-diene-3-ol] | 64 µg/mL (≈ 154 µM) | 128 µg/mL (≈ 309 µM) | 128 µg/mL (≈ 309 µM) | without inducing cytotoxicity |  | 73.7 ± 6.2 µM
